Experimental data as given in PMC4856767 (Cell Research, 2016).
Entries after “also recorded” stand apart in the source; their conditions may differ. No end group written: not given here.

How the values were obtained:
PXL1^LRR = experiment: In vitro GST pull-down, PXL1^LRR; type: binding, Arabidopsis; conditions: GS4B resin, wash 10 mM Bis-Tris pH 6.0, 100 mM NaCl; SDS-PAGE, Coomassie blue; Figure 1A
PXL2^LRR = experiment: In vitro GST pull-down, PXL2^LRR; type: binding, Arabidopsis; conditions: GS4B resin, wash 10 mM Bis-Tris pH 6.0, 100 mM NaCl; SDS-PAGE, Coomassie blue; Figure 1A
[1] = biological target: T1, extracellular LRR domain of PXY (PXY^LRR, residues 1-647) (Arabidopsis, UniProt Q9FII5 30-647); experiment: ITC
T1 sequence: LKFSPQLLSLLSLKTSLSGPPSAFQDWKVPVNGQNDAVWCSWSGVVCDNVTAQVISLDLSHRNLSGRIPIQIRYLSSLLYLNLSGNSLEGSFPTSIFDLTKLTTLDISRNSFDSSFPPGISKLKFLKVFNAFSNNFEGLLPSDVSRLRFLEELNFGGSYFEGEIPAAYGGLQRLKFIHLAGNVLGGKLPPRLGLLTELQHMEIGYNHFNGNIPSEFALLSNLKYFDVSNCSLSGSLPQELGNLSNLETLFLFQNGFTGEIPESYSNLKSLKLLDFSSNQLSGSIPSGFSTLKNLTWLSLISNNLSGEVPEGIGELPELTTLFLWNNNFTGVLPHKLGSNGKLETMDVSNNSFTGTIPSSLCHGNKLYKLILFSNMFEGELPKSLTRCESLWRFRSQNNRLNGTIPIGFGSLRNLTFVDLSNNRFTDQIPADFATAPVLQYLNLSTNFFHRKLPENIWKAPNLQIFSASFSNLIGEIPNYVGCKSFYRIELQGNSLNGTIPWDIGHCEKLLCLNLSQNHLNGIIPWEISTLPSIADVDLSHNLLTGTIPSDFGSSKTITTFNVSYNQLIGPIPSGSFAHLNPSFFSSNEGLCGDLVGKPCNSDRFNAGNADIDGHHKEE

[2] = biological target: T1, extracellular LRR domain of PXY …; experiment: pull-down

“GST-TDIF: GST tagged-TDIF protein expressed in E. coli strain BL21 (DE3) (HEVPSGPNPISN; also: GST tag, end not given here)” was tested, and the “interaction with PXL1^LRR in pull-down” value (PXL1^LRR) was “can pull-down; also recorded: much lower affinities” and the “interaction with PXL2^LRR in pull-down” value (PXL2^LRR) was “can pull-down; also recorded: much lower affinities”.

With REVPSGPNPISN [synthetic mutant peptide TDIF^H1R] the Kd [1] was ~68 nM.

HEVPSGPNPISN [recombinant GST-TDIF]: binds [2].
